Holding throughout (test): relative viability (nuclei count vs DMSO), 5 days (fraction); higher = more cells survive
Compound in the assay “Pemetrexed + Decitabine”: Nc1nc2[nH]cc(CCc3ccc(C(=O)N[C@@H](CCC(=O)O)C(=O)O)cc3)c2c(=O)[nH]1 [Pemetrexed] + Nc1ncn([C@H]2C[C@H](O)[C@@H](CO)O2)c(=O)n1 [Decitabine] (partner 2 µM)
The method in brief: (§1)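 Relative viability was taken as the ratio of nuclei in treated wells to nuclei in vehicle wells. Lung cancer cell lines in 1536-well plates received compounds by pin tool one day after seeding, either one drug alone or a fixed anchor-drug dose plus five library-drug doses (not always all listed) in √10 steps. Nuclei were counted on 4× images after 5 days of treatment, and values are medians of duplicate plates.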

Compound in the assay “Pemetrexed + Alpelisib”: Nc1nc2[nH]cc(CCc3ccc(C(=O)N[C@@H](CCC(=O)O)C(=O)O)cc3)c2c(=O)[nH]1 [Pemetrexed] + Cc1nc(NC(=O)N2CCC[C@H]2C(N)=O)sc1-c1ccnc(C(C)(C)C(F)(F)F)c1 [Alpelisib] (partner 2 µM)
The method in brief:
as §1

Compound in the assay “Pemetrexed + Dasatinib”: Nc1nc2[nH]cc(CCc3ccc(C(=O)N[C@@H](CCC(=O)O)C(=O)O)cc3)c2c(=O)[nH]1 [Pemetrexed] + Cc1nc(Nc2ncc(C(=O)Nc3c(C)cccc3Cl)s2)cc(N2CCN(CCO)CC2)n1 [Dasatinib] (partner 0.075 µM)
The method in brief: as §1

Compound in the assay “Pemetrexed + Luminespib”: Nc1nc2[nH]cc(CCc3ccc(C(=O)N[C@@H](CCC(=O)O)C(=O)O)cc3)c2c(=O)[nH]1 [Pemetrexed] + CCNC(=O)c1noc(-c2cc(C(C)C)c(O)cc2O)c1-c1ccc(CN2CCOCC2)cc1 [Luminespib] (partner 0.01 µM)
The method in brief:
as §1

As for UMC-11, the relative viability in the assay with Pemetrexed + Decitabine (first compound 0.002 µM) came out at 0.849; with Pemetrexed + Decitabine (first compound 0.006325 µM), 0.63; with Pemetrexed + Decitabine (first compound 0.02 µM), 0.595; in the assay with Pemetrexed + Decitabine (first compound 0.06325 µM) it was 0.58; with Pemetrexed + Decitabine (first compound 0.2 µM) it was 0.7; in the assay with Pemetrexed + Alpelisib (first compound 0.002 µM), 1.04. The relative viability with Pemetrexed + Alpelisib (first compound 0.006325 µM) is 1.03; in the assay with Pemetrexed + Alpelisib (first compound 0.02 µM), 1; in the assay with Pemetrexed + Alpelisib (first compound 0.06325 µM), 1.03; in the assay with Pemetrexed + Alpelisib (first compound 0.2 µM), 0.829; in the assay with Pemetrexed + Dasatinib (first compound 0.002 µM), 0.483; in the assay with Pemetrexed + Dasatinib (first compound 0.006325 µM), 0.451. Moreover, the relative viability with Pemetrexed + Dasatinib (first compound 0.02 µM) worked out at 0.468; in the assay with Pemetrexed + Dasatinib (first compound 0.06325 µM) it was 0.442; with Pemetrexed + Dasatinib (first compound 0.2 µM), 0.474; with Pemetrexed + Luminespib (first compound 0.002 µM) it was 0.989; with Pemetrexed + Luminespib (first compound 0.006325 µM) it was 0.972; with Pemetrexed + Luminespib (first compound 0.02 µM), 1.03. Further, the relative viability with Pemetrexed + Luminespib (first compound 0.06325 µM) turned out to be 1.09; with Pemetrexed + Luminespib (first compound 0.2 µM), 0.923.

For the origin of these results see the supplement of paper PMC10307832.
